Results reported in publication PMC4440792 (ChemMedChem, 2014).
Ends that are not written are not given here.

Tested on: human red blood cells
Assay: Hemolytic assay
Format: cell-based
Details: human RBCs in PBS, 37°C, 1 h; representative of 4 independent determinations

Compound | HD10 (peptide concentration that results in lysis of 10% red blood cells) [μm]
CC(C)C[C@H](NC(=O)[C@H](CCCCN)NC(=O)[C@H](C)NC(=O)[C@H](CC(C)C)NC(=O)[C@H](CCCCN)NC(=O)[C@H](CCCCN)NC(=O)[C@H](C)NC(=O)[C@H](CC(C)C)NC(=O)[C@H](CCCCN)NC(=O)[C@H](C)NC(=O)[C@H](CC(C)C)NC(=O)[C@@H](N)CCCCN)C(=O)N[C@@H](C)C(=O)N[C@@H](CCCCN)C(N)=O [PAP] | 64
GGHGLLKRIKTLL-NH2 [GGH–anoplin] | 16
GLLKRIKTLL-NH2 [Anoplin] | >64
RAGLQFPVGRVHRLLRK-NH2 [sh-Buforin] | 64
